In ChEMBL document CHEMBL2021758, “Synthesis of indolizidinone analogues of cytotoxic alkaloids: monocyclic precursors are also active” (2012):
Activity calls are given as the source filed them. No cut-off for these calls is given here.

Experiments:
MCF7 [1] = experiment: Cytotoxicity against human MCF7 cells assessed as reduction of cell viability at 10 uM after 24 hrs; type: functional, cell-based
SH-SY5Y [2] = experiment: Cytotoxicity against human SH-SY5Y cells assessed as reduction of cell viability at 30 uM after 48 hrs; type: functional
SH-SY5Y [3] = experiment: Cytotoxicity against human SH-SY5Y cells assessed as reduction of cell viability at 10 uM after 24 hrs; type: functional, cell-based
MCF7 [4] = experiment: Cytotoxicity against human MCF7 cells assessed as reduction of cell viability at 30 uM after 48 hrs; type: functional
SH-SY5Y [5] = experiment: Cytotoxicity against human SH-SY5Y cells assessed as reduction of cell viability at 20 uM after 24 hrs; type: functional, cell-based
MCF7 [6] = experiment: Cytotoxicity against human MCF7 cells assessed as reduction of cell viability at 20 uM after 24 hrs; type: functional, cell-based
MCF7 [7] = experiment: Induction of morphological changes in human MCF7 cells assessed as change in perimeter of cell at 30 uM after 48 hrs; type: functional, cell-based
SH-SY5Y [8] = experiment: Induction of morphological changes in human SH-SY5Y cells assessed as change in cell shape at 30 uM after 48 hrs; type: functional, cell-based
SH-SY5Y [9] = experiment: Induction of morphological changes in human SH-SY5Y cells assessed as change in volume of cell at 30 uM after 48 hrs; type: functional, cell-based
SH-SY5Y [10] = experiment: Induction of morphological changes in human SH-SY5Y cells assessed as change in perimeter of cell at 30 uM after 48 hrs; type: functional, cell-based
MCF7 [11] = experiment: Induction of morphological changes in human MCF7 cells assessed as change in cell shape at 30 uM after 48 hrs; type: functional, cell-based
MCF7 [12] = experiment: Induction of morphological changes in human MCF7 cells assessed as change in volume of cell at 30 uM after 48 hrs; type: functional, cell-based
MCF7 [13] = experiment: Induction of morphological changes in human MCF7 cells assessed as increase in volume of nucleus at 30 uM after 6 hrs; type: functional, cell-based
MCF7 [14] = experiment: Induction of morphological changes in human MCF7 cells assessed as cell swelling at 30 uM after 6 hrs; type: functional, cell-based
SH-SY5Y [15] = experiment: Induction of morphological changes in human SH-SY5Y cells assessed as increase in volume of nucleus at 30 uM after 6 hrs; type: functional, cell-based
MCF7 [16] = experiment: Induction of morphological changes in human MCF7 cells assessed as increase in refringency of the nucleoli at 30 uM after 6 hrs; type: functional, cell-based
SH-SY5Y [17] = experiment: Induction of morphological changes in human SH-SY5Y cells assessed as cell swelling at 30 uM after 6 hrs; type: functional, cell-based
MCF7 [18] = experiment: Induction of morphological changes in human MCF7 cells assessed as cytoplasm vacuolization at 30 uM after 6 hrs; type: functional, cell-based
SH-SY5Y [19] = experiment: Induction of morphological changes in human SH-SY5Y cells assessed as cytoplasm vacuolization at 30 uM after 6 hrs; type: functional, cell-based
SH-SY5Y [20] = experiment: Induction of morphological changes in human SH-SY5Y cells assessed as increase in refringency of the nucleoli at 30 uM after 6 hrs; type: functional, cell-based
MCF7 [21] = experiment: Induction of morphological changes in human MCF7 cells at 30 uM after 24 hrs; type: functional, cell-based

Compound: O=C1C(c2ccccc2)=C(c2ccccc2)C[C@@H]2C[C@@H](O)CN12
- Activity (MCF7 [1]): Active
- Activity (SH-SY5Y [2]): Active
- Activity (SH-SY5Y [3]): Active
- Activity (MCF7 [4]): Active
- Activity (SH-SY5Y [5]): Active
- Activity (MCF7 [6]): Active

Compound: O=C1C(c2ccccc2)=C(c2ccc(-c3ccccc3)cc2)C[C@H]2C[C@@H](O)CN12
- Activity (MCF7 [7]): Active
- Activity (SH-SY5Y [8]): Active
- Activity (SH-SY5Y [9]): Active
- Activity (SH-SY5Y [10]): Active
- Activity (MCF7 [11]): Active
- Activity (MCF7 [1]): Active
- Activity (SH-SY5Y [2]): >70%
- Activity (SH-SY5Y [3]): Active
- Activity (MCF7 [4]): >70%
- Activity (SH-SY5Y [5]): Active
- Activity (MCF7 [6]): Active
- Activity (MCF7 [12]): Active

Compound: O=C1C(c2ccccc2)=C(c2ccccc2)C[C@H]2C[C@@H](O)CN12
- Activity (MCF7 [1]): Active
- Activity (SH-SY5Y [2]): Active
- Activity (SH-SY5Y [3]): Active
- Activity (MCF7 [4]): Active
- Activity (SH-SY5Y [5]): Active
- Activity (MCF7 [6]): Active

Compound: COc1ccc(C2=C(c3ccccc3)C(=O)N3C[C@H](O)C[C@H]3C2)cc1
- Activity (MCF7 [1]): Active
- Activity (SH-SY5Y [2]): Active
- Activity (SH-SY5Y [3]): Active
- Activity (MCF7 [4]): Active
- Activity (SH-SY5Y [5]): Active
- Activity (MCF7 [6]): Active

Compound: COc1ccc(C2=C(c3ccccc3)C(=O)N3C[C@H](O)C[C@@H]3C2)cc1
- Activity (MCF7 [1]): Active
- Activity (SH-SY5Y [3]): Active
- Activity (MCF7 [4]): Active
- Activity (SH-SY5Y [5]): Active
- Activity (MCF7 [6]): Active

Compound: Cn1cccc1C1=C(c2ccccc2)C(=O)N2C[C@H](O)C[C@@H]2C1
- Activity (MCF7 [1]): Active
- Activity (SH-SY5Y [2]): Active
- Activity (SH-SY5Y [3]): Active
- Activity (MCF7 [4]): Active
- Activity (SH-SY5Y [5]): Active
- Activity (MCF7 [6]): Active

Compound: O=C(C[C@@H]1C[C@@H](O)CN1C(=O)Cc1ccccc1)c1ccc(-c2ccccc2)cc1
- Activity (MCF7 [1]): Active
- Activity (SH-SY5Y [3]): Active

Compound: O=C1C(c2ccccc2)=C(c2ccc(Br)cc2)C[C@H]2C[C@@H](O)CN12
- Activity (MCF7 [1]): Active
- Activity (SH-SY5Y [3]): Active
- Activity (MCF7 [4]): Active
- Activity (SH-SY5Y [5]): Active
- Activity (MCF7 [6]): Active

Compound: O=C1C(c2ccccc2)=C(c2ccc(-c3ccccc3)cc2)C[C@@H]2C[C@@H](O)CN12
- Activity (MCF7 [1]): Active
- Activity (SH-SY5Y [2]): >70%
- Activity (SH-SY5Y [3]): Active
- Activity (MCF7 [4]): >70%
- Activity (SH-SY5Y [5]): Active
- Activity (MCF7 [6]): Active

Compound: O=C(C[C@H]1C[C@@H](O)CN1C(=O)Cc1ccccc1)c1ccc(-c2ccccc2)cc1
- Activity (MCF7 [13]): Active
- Activity (MCF7 [14]): Active
- Activity (SH-SY5Y [15]): Active
- Activity (MCF7 [16]): Active
- Activity (SH-SY5Y [17]): Active
- Activity (MCF7 [1]): Active
- Activity (MCF7 [18]): Active
- Activity (SH-SY5Y [19]): Active
- Activity (SH-SY5Y [20]): Active
- Activity (SH-SY5Y [3]): Active
- Activity (MCF7 [21]): Active

Compound: O=C1C(c2ccccc2)=C(c2ccc(Br)cc2)C[C@@H]2C[C@@H](O)CN12
- Activity (MCF7 [1]): Active
- Activity (SH-SY5Y [2]): Active
- Activity (SH-SY5Y [3]): Active
- Activity (MCF7 [4]): Active
- Activity (SH-SY5Y [5]): Active
- Activity (MCF7 [6]): Active

Compound: Cn1cccc1C1=C(c2ccccc2)C(=O)N2C[C@H](O)C[C@H]2C1
- Activity (MCF7 [1]): Active
- Activity (SH-SY5Y [2]): Active
- Activity (SH-SY5Y [3]): Active
- Activity (MCF7 [4]): Active
- Activity (SH-SY5Y [5]): Active
- Activity (MCF7 [6]): Active
